{
  "source": "patent EP0013067A1",
  "about": "“Bicyclic beta-lactam antibacterial agents, their use in pharmaceutical compositions, processes for their preparation and intermediates for use in such processes” (BEECHAM GROUP PLC, priority 1978, dated 1980)",
  "type_in_all_cases": "cell-based",
  "key": {"E. coli ESS": {"system": "E. coli ESS", "assay": "MIC, DST agar + 10% horse blood", "details": "Escherichia coli, inoculum 0.001 ml of a 10^-2 dilution for G + ve bacteria or a 10^-4 dilution for G - ve organisms", "from_the_text": "(§1) The ninimum inhibitory concentrations (MIC) cf this compound required to inhibit the growth of various bacteria are tabulated balow: […]"}, "Proteus morganii I580": {"system": "Proteus morganii I580", "assay": "MIC, DST agar + 10% horse blood", "details": "Morganella morganii; Proteus morganii I580; DST agar + 10% horse blood; inoculum 0.001 ml of a 10^-2 dilution for G + ve bacteria or a 10^-4 dilution for G - ve organisms; read-out: MIC Agar", "from_the_text": "as §1"}, "Proteus vulgaris W091": {"system": "Proteus vulgaris W091", "assay": "MIC, DST agar + 10% horse blood", "details": "Proteus vulgaris W091; DST agar + 10% horse blood; inoculum 0.001 ml of a 10^-2 dilution for G + ve bacteria or a 10^-4 dilution for G - ve organisms; read-out: MIC Agar", "from_the_text": "as §1"}, "Serratia marcescens US20": {"system": "Serratia marcescens US20", "assay": "MIC, DST agar + 10% horse blood", "details": "Serratia marcescens US20; DST agar + 10% horse blood; inoculum 0.001 ml of a 10^-2 dilution for G + ve bacteria or a 10^-4 dilution for G - ve organisms; read-out: MIC Agar", "from_the_text": "as §1"}, "Streptococcus faecalis I": {"system": "Streptococcus faecalis I", "assay": "MIC, DST agar + 10% horse blood", "details": "Enterococcus faecalis; Streptococcus faecalis I; DST agar + 10% horse blood; inoculum 0.001 ml of a 10^-2 dilution for G + ve bacteria or a 10^-4 dilution for G - ve organisms; read-out: MIC Agar", "from_the_text": "as §1"}, "[1]": {"system": "Staphylococcus aureus Oxford", "assay": "MIC, microtitre using Nutrient broth", "details": "Staphylococcus aureus Oxford; Microtitre using nutrient broth; inoculum 0.001 ml of a 10^-2 dilution for G + ve bacteria or a 10^-4 dilution for G - ve organisms; read-out: MIC Broth", "from_the_text": "as §1"}, "Enterobacter cloacae N1": {"system": "Enterobacter cloacae N1", "assay": "MIC, microtitre using Nutrient broth", "details": "Microtitre using nutrient broth, inoculum 0.001 ml of a 10^-2 dilution for G + ve bacteria or a 10^-4 dilution for G - ve organisms", "from_the_text": "as §1"}, "[2]": {"system": "Staphylococcus aureus 1517", "assay": "MIC, microtitre using Nutrient broth", "details": "inoculum 0.001 ml of a 10^-2 dilution for G + ve bacteria or a 10^-4 dilution for G - ve organisms", "from_the_text": "as §1"}},
  "data": [
    {"smiles": "O=C(O)C1=C(CO)SC2CC(=O)N12", "note": "(stereo not shown) [compound 19, Sodium 2-Hydroxymethyl penem-3-carboxylate]", "values": [
      {"measurement": "MIC", "setting": "E. coli ESS", "result": 10, "unit": "µg/mL"},
      {"measurement": "MIC", "setting": "Proteus morganii I580", "result": 25, "unit": "µg/mL"},
      {"measurement": "MIC", "setting": "Proteus vulgaris W091", "result": 50, "unit": "µg/mL"},
      {"measurement": "MIC", "setting": "Serratia marcescens US20", "result": 10, "unit": "µg/mL"},
      {"measurement": "MIC", "setting": "Streptococcus faecalis I", "result": 100, "unit": "µg/mL"},
      {"measurement": "MIC", "setting": "[1]", "result": 4, "unit": "µg/mL"}
    ]},
    {"smiles": "CC(=O)OCC1=C(C(=O)O)N2C(=O)CC2S1", "note": "(stereo not shown) [compound 21, Sodium 2-Acetoxymethyl penem-3-carboxylate]", "values": [
      {"measurement": "MIC", "setting": "E. coli ESS", "result": 10, "unit": "µg/mL"},
      {"measurement": "MIC", "setting": "Proteus morganii I580", "result": 10, "unit": "µg/mL"},
      {"measurement": "MIC", "setting": "Proteus vulgaris W091", "result": 50, "unit": "µg/mL"},
      {"measurement": "MIC", "setting": "Serratia marcescens US20", "result": 25, "unit": "µg/mL"},
      {"measurement": "MIC", "setting": "Streptococcus faecalis I", "result": 100, "unit": "µg/mL"},
      {"measurement": "MIC", "setting": "Enterobacter cloacae N1", "result": 62, "unit": "µg/mL"},
      {"measurement": "MIC", "setting": "[2]", "result": 8, "unit": "µg/mL"}
    ]}
  ]
}
